# Earlier results as cited in patent publication US11559519B2, “Tizanidine therapy system” (MEDRx Co., Ltd., priority 2018, dated 2023).
# Conditions: multiple dose, placebo-controlled clinical studies
structure (smiles),measurement,setting,value
Clc1ccc2nsnc2c1NC1=NCCN1 [tizanidine],sedation rated as severe,,10%
same,patients who reported sedation as an adverse event,patients receiving any dose,48%
